According to ChEMBL document CHEMBL1131285, “Quinolines as potent 5-lipoxygenase inhibitors: synthesis and biological profile of L-746,530” (Bioorg Med Chem Lett, 1998):

Columns and labels:
[1] = biological target: T1, Polyunsaturated fatty acid 5-lipoxygenase (Homo sapiens, UniProt P09917); assay: Compound was evaluated for in vitro inhibition of recombinant human 5-lipoxygenase (5-LO)
T1 sequence (P09917 whole entry): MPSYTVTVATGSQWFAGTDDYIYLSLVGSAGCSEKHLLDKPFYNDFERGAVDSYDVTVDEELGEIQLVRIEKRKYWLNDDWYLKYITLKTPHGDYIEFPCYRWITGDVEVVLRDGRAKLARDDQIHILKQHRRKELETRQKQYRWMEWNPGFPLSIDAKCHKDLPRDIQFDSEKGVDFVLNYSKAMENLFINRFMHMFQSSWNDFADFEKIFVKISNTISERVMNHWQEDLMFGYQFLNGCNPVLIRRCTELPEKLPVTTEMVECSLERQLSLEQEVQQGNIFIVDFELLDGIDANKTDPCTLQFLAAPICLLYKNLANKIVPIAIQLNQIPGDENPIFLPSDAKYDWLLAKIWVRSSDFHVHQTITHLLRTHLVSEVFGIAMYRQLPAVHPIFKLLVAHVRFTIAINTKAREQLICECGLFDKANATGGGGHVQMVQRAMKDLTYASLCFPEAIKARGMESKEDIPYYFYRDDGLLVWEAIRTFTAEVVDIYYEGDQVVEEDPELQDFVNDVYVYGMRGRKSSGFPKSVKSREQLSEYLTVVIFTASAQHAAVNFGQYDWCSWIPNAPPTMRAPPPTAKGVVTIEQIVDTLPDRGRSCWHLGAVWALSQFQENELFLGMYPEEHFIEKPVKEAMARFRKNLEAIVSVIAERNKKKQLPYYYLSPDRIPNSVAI

[2] = Compound was evaluated for in vitro inhibition of leukotriene (LTB4) in human peripheral blood polymorphonuclear leukocytes (HPMN); assay type: functional
Homo sapiens = species on record: Homo sapiens; assay: Compound was evaluated for in vitro inhibition of leukotriene (LTB4) in human whole blood (HWB); assay type: functional
Rattus norvegicus = assay: The effect on the biosynthesis of leukotriene B4 in vivo was evaluated in the rat pleural cavity using a carrageenan-induced model of inflammation after oral administration at 6 hr; assay type: functional

| SMILES | IC50 [1] | IC50 [2] | IC50 (Homo sapiens) | ED50 (Rattus norvegicus) |
| --- | --- | --- | --- | --- |
| N#Cc1cc(-c2ccoc2)c2ccc(OCc3cccc(C4(O)CC5COC(C4)O5)c3)cc2n1 (stereo not given) | > 3000 nM | 10 nM | 287 nM | – |
| OC1(c2cccc(COc3ccc4c(-c5ccoc5)cncc4c3)n2)CC2COC(C1)O2 (stereo not given) | 1460 nM | 10.3 nM | 90 nM | – |
| N#Cc1cc(-c2ccoc2)c2ccc(OCc3cccc(C4(O)CC5COC(C4)O5)n3)cc2n1 (stereo not given) | 36 nM | 4 nM | 103 nM | – |
| N#Cc1cc(-c2ccoc2)c2ccc(COc3cc(F)cc(C4(O)CC5COC(C4)O5)c3)cc2n1 (stereo not given) | – | – | – | < 0.1 mg/kg |
| O=c1cc(-c2ccoc2)c2ccc(OCc3cccc(C4(O)CC5COC(C4)O5)n3)cc2n1Cc1ccccc1 (stereo not given) | 102 nM | 5.8 nM | 160 nM | – |
| N#Cc1cc(-c2ccoc2)c2ccc(OCc3cccc(C4(O)CC5COC(C4)O5)n3)cc2c1 (stereo not given) | – | 1.6 nM | – | – |
| N#Cc1cc(-c2ccoc2)c2ccc(CSc3cc(F)cc(C4(O)CC5COC(C4)O5)c3)cc2n1 (stereo not given) | 124 nM | 6 nM | 193 nM | – |
| N#Cc1cc2cc(OCc3cccc(C4(O)CC5COC(C4)O5)n3)ccc2c(-c2ccoc2)n1 (stereo not given) | 1960 nM | 18 nM | 47 nM | – |
